Biological target: T1, TGF-beta receptor type-1 (Homo sapiens, UniProt P36897)
T1 sequence (P36897 whole entry): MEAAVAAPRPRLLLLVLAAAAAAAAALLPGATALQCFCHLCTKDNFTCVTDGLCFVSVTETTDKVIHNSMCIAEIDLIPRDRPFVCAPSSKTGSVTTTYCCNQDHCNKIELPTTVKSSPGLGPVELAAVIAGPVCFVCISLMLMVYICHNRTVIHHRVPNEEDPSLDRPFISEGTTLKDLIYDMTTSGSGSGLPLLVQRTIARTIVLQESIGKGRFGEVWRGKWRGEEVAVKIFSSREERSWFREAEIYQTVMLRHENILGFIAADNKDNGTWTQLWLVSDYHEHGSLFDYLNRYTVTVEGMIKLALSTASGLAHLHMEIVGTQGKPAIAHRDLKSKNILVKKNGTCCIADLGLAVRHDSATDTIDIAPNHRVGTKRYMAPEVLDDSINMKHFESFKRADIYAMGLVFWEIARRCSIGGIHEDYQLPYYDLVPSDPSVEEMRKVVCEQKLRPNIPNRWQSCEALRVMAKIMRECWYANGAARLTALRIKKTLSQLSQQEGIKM
Assay: Enzymatic Activity Assay
Procedure: The enzymatic activity of compounds of the present invention was monitored measuring the formation of ADP using the ADP-GLO Kinases assay. Following the incubation of the purified enzyme, a substrate and ATP, the produced ADP was converted into ATP, which in turn was converted into light by Ultra-Glo Luciferase. The luminescent signal positively correlated with ADP amount and kinase activity. […] All reactions/incubations were performed at 25° C. Compound and ALK5 kinase were mixed and incubated for 15 mins. […] After an incubation of 150 min, the reaction was stopped, and ADP production detected with ADP-Glo kit according to manufacturer's indications. The assay was performed in 384-well format and was validated using a selection of reference compounds that was tested in 11 point concentration-response curve.

- IC50: < 1 nM
SMILES: O=C(CCN(C1COC1)C1COC1)Nc1cc(N2CCOc3cnc(-c4cc(Cl)ccc4F)cc32)ccn1 [US20240116947, Example 21]

Reference: BindingDB's records for patent US20240116947 (Chiesi Farmaceutici, 2024)
